According to patent publication US6770638B2, “Tetrahydroindolone and purine derivatives linked to arylpiperazines” (Spectrum Pharmaceuticals, Inc., priority 2001, dated 2004):
One block for each molecule: values may come before it.

Tests used:
Caco-2 cells = assay: Membrane permeability (Papp) across Caco-2 cell monolayers; format: in vitro ADME; conditions: Caco-2; for EFFLUX LIMITED: Yes/No; for PERMEABILITY: class in words (High/Low)
[1] = as above; format: in vitro ADME; conditions: human, Caco-2 monolayer; for Papp A→B: apical to basolateral, read-out: Papp (cm/s × 10^6) AP-to-BL; for Papp B→A: basolateral to apical, read-out: Papp (cm/s × 10^6) BL-to-AP; for efflux ratio: read-out: RATIO Papp^B-A/Papp^A-B
male C-57 mice = assay: PCP disruption of pre-pulse inhibition of the acoustic startle response; format: in vivo; conditions: route not given (method: PO or SC); PCP 5 mg/kg IP
Experimental: The non-competitive NMDA receptor antagonist phencyclidine (PCP) reduces pre-pulse inhibition (PPI) of the acoustic startle response in rodents. Identifying compounds that improve the PCP-induced deficits in pre-pulse inhibition may provide insight into therapeutic strategies for treating schizophrenia. For testing of PPI, male C-57 mice were assigned to five dose groups of eight animals per group, and vehicle or test compound were administered orally (PO) or subcutaneously (SC) 20 minutes prior to intraperitoneal (IP) administration of vehicle or PCP (5 mg/kg). Ten minutes following PCP administration, the mice were placed into Hamilton-Kinder startle chambers and evaluation of pre-pulse inhibition procedure was performed. Following a five-minute acclimatization period with background white noise (65 db), mice were exposed to five different trial types. Trials were presented […] in a quasi-random order, with randomized 5 to 25 second inter-trial intervals. Trials were: stimulus only trial (120 db white noise, 50 ms stimulus); two different prepulse+pulse trials in which a 20 ms 5 db, or 10 db stimuli above a 65 db background preceded the 120 db pulse by 120 ms; a 10 db prepulse without a 120 db pulse; and a no stimulus trial, in which only the background noise was presented.

mice = assay: Conditioned avoidance responding (CAR, active avoidance); format: in vivo; conditions: SC to mice, 20 minutes before test session
Experimental: Training: Consists of 20 trials with variable inter-trial intervals (Trained to 80% Avoidance Criteria). After a one-minute acclimation period, the house light and an acoustic 90 dB tone (conditioned stimuli) are presented. A response (crossing to dark compartment) within 5 seconds ends the trial and trial is recorded as avoidance response (CAR). […] To avoid shock, animals learn to move from the lighted side of the -chamber to the dark side when the cue is presented (avoidance) or moved when the shock is administered (escape). Testing: Vehicle or test compounds are administered S.C. 20 minutes before the test session. (Checking for disruption of cognition and attention)

EFFLUX LIMITED (Caco-2 cells): No | PERMEABILITY (Caco-2 cells): High | Papp A→B [1]: 20.4 ± 1.8 ×10⁻⁶ cm/s | Papp B→A [1]: 9.4 ± 0.3 ×10⁻⁶ cm/s | efflux ratio [1]: 0.43
SMILES: O=C1CCCc2c1ccn2CCN1CCN(c2cccc(Cl)c2)CC1 [NEO-376, 1-{2-[4-(3-Chloro-phenyl)-piperazin-1-yl]-ethyl}-1,5,6,7-tetrahydroindol-4-one]
Conditioned Avoidance Responding, effect on latency (mice): significant increase in latency | Conditioned Avoidance Responding, overall effect / effect on escape or avoidance (mice): No effect on escape or avoidance

EFFLUX LIMITED (Caco-2 cells): No | PERMEABILITY (Caco-2 cells): High | Papp A→B [1]: 32.9 ± 9.6 ×10⁻⁶ cm/s | Papp B→A [1]: 25.3 ± 0.7 ×10⁻⁶ cm/s | efflux ratio [1]: 0.77
SMILES: O=C1CCCc2c1ccn2CCCN1CCN(c2ncccn2)CC1 [NEO-381, 1-{3-[4-(2-Pyrimidyl)piperazine-1-yl]propyl}-1,5,6,7-tetrahydroindol-4-one]
PCP Disruption of Pre-pulse Inhibition, result in words (male C-57 mice): No reversal | Conditioned Avoidance Responding, overall effect / effect on escape or avoidance (mice): No effect

EFFLUX LIMITED (Caco-2 cells): No | PERMEABILITY (Caco-2 cells): High | Papp A→B [1]: 27.1 ± 1.2 ×10⁻⁶ cm/s | Papp B→A [1]: 15.7 ± 1.3 ×10⁻⁶ cm/s | efflux ratio [1]: 0.58
SMILES: O=C1CCCc2c1ccn2CCCCN1CCN(c2cccc(C(F)(F)F)c2)CC1 [NEO-392, 1-{4-[4-(3-Trifluoromethylphenyl)piperazin-1-yl]-butyl}-1,5,6,7-tetrahydroindol-4-one]
Conditioned Avoidance Responding, effect on avoidance (mice): Significant reduction in avoidance | Conditioned Avoidance Responding, effect on latency (mice): Significant increase in latency

EFFLUX LIMITED (Caco-2 cells): No | PERMEABILITY (Caco-2 cells): High | Papp A→B [1]: 17.3 ± 2.3 ×10⁻⁶ cm/s
SMILES: CC(C)NCC(O)COc1cccc2ccccc12 (stereo not shown) [Propranolol, reference compound]

The remaining lines, values behind:

SMILES: CN1CCN(C2=Nc3cc(Cl)ccc3Nc3ccccc32)CC1 [Clozapine, clozapine, reference compound]
EFFLUX LIMITED (Caco-2 cells): No | PERMEABILITY (Caco-2 cells): High | Papp A→B [1]: 15.3 ± 0.7 ×10⁻⁶ cm/s | Papp B→A [1]: 7.4 ± 1.1 ×10⁻⁶ cm/s | efflux ratio [1]: 0.65

SMILES: O=C1CCCc2c1ccn2CCCN1CCN(c2cccc(C(F)(F)F)c2)CC1 [NEO-356, 1-{3-[4-(3-Trifluoromethylphenyl)piperazin-1-yl]propyl}-1,5,6,7-tetrahydroindol-4-one]
EFFLUX LIMITED (Caco-2 cells): No | PERMEABILITY (Caco-2 cells): High | Papp A→B [1]: 21.5 ± 2.9 ×10⁻⁶ cm/s | Papp B→A [1]: 8.8 ± 0.3 ×10⁻⁶ cm/s | efflux ratio [1]: 0.41 | PCP Disruption of Pre-pulse Inhibition, result in words (male C-57 mice): No reversal | Conditioned Avoidance Responding, overall effect / effect on escape or avoidance (mice): No effect

SMILES: O=C1CCCc2c1ccn2CCN1CCN(c2cccc(C(F)(F)F)c2)CC1 [NEO-359, 1-{2-[4-(3-Trifluoromethylphenyl)piperazine-1-yl]ethyl}-1,5,6,7-tetrahydroindol-4-one]
EFFLUX LIMITED (Caco-2 cells): No | PERMEABILITY (Caco-2 cells): High | Papp A→B [1]: 24 ± 3.9 ×10⁻⁶ cm/s | Papp B→A [1]: 7.6 ± 0.5 ×10⁻⁶ cm/s | efflux ratio [1]: 0.32 | PCP Disruption of Pre-pulse Inhibition, result in words (male C-57 mice): No reversal | Conditioned Avoidance Responding, effect on latency (mice): Significant decrease in latency | Conditioned Avoidance Responding, overall effect / effect on escape or avoidance (mice): No effect on escape or avoidance

SMILES: O=C1CCCc2c1ccn2CCCN1CCN(c2cccc(Cl)c2)CC1 [NEO-363, 1-{3-[4-(3-Chlorophenyl)piperazine-1-yl]propyl}-1,5,6,7-tetrahydroindol-4-one]
EFFLUX LIMITED (Caco-2 cells): No | PERMEABILITY (Caco-2 cells): High | Papp A→B [1]: 18 ± 0.7 ×10⁻⁶ cm/s | Papp B→A [1]: 13.1 ± 1.1 ×10⁻⁶ cm/s | efflux ratio [1]: 0.75 | Conditioned Avoidance Responding, overall effect / effect on escape or avoidance (mice): No effect

SMILES: COc1ccccc1N1CCN(CCCn2ccc3c2CCCC3=O)CC1 [NEO-370, 1-{3-[4-(2-Methoxyphenyl)piperazine-1-yl]propyl}-1,5,6,7-tetrahydroindol-4-one]
EFFLUX LIMITED (Caco-2 cells): No | PERMEABILITY (Caco-2 cells): High | Papp A→B [1]: 32.1 ± 8.1 ×10⁻⁶ cm/s | Papp B→A [1]: 20 ± 3.4 ×10⁻⁶ cm/s | efflux ratio [1]: 0.67 | Conditioned Avoidance Responding, effect on avoidance (mice): Significant reduction in avoidance | Conditioned Avoidance Responding, effect on latency (mice): Significant increase in latency

SMILES: COc1ccccc1N1CCN(CCn2ccc3c2CCCC3=O)CC1 [NEO-377, 1-{2-[4-(2-Methoxyphenyl)-piperazin-1-yl]-ethyl}-1,5,6,7-tetrahydroindol-4-one]
EFFLUX LIMITED (Caco-2 cells): No | PERMEABILITY (Caco-2 cells): High | Papp A→B [1]: 26 ± 1.8 ×10⁻⁶ cm/s | Papp B→A [1]: 15.5 ± 2.9 ×10⁻⁶ cm/s | efflux ratio [1]: 0.6 | Conditioned Avoidance Responding, effect on avoidance (mice): Significant reduction in avoidance | Conditioned Avoidance Responding, effect on latency (mice): Significant increase in latency

SMILES: Cc1nc2n(c(=O)c1CCN1CCC(c3noc4cc(F)ccc34)CC1)CCCC2 [Risperidone, risperidone, reference compound]
EFFLUX LIMITED (Caco-2 cells): No | PERMEABILITY (Caco-2 cells): High | Papp A→B [1]: 21.5 ± 0.2 ×10⁻⁶ cm/s | Papp B→A [1]: 14 ± 3.1 ×10⁻⁶ cm/s | Conditioned Avoidance Responding, effect on avoidance (mice): Significant reduction in avoidance | Conditioned Avoidance Responding, effect on latency (mice): Significant increase in latency
